The results in this text go back to patent publication US20090053237A1, “USE OF PENICILLIN-BINDING PROTEINS OR POLYNUCLEOTIDES OR ANTIBODIES THEREOF FOR PREVENTING OR TREATING BACTERIAL INFECTIONS” (priority 2005, published 2009).

What all share (assay type): cell-based
Experiment [1] deals with Neisseria meningitidis strain TR 16504. The experiment in a line: MIC of penicillin G, strain TR 16504. Conditions: strain TR 16504, serogroup C. An excerpt:
(§1) Features of all Neisseria meningitidis strains for which a recombinant Neisseria meningitidis PBP2 fragment lacking the N-terminal transmembrane domain was produced are listed in following Table 3.

The subject of experiment [2] is Neisseria meningitidis strain LNP8013. The experiment is described as follows: MIC of penicillin G, strain LNP8013. Conditions: strain LNP8013, serogroup C.
Description: as §1

For experiment [3], the system named is Neisseria meningitidis strain LNP17041. The experiment is described as follows: MIC of penicillin G, strain LNP17041. Conditions: strain LNP17041, serogroup B.
Description: as §1

Experiment [4] relates to Neisseria meningitidis strain TR 16454. The experiment is described as follows: MIC of penicillin G, strain TR 16454. Conditions: strain TR 16454, serogroup C.
Description: as §1

Experiment [5] concerns Neisseria meningitidis strain LNP16454. The experiment in a line: MIC of penicillin G, strain LNP16454. Conditions: strain LNP16454, serogroup C.
Description: as §1

The test system of experiment [6] is Neisseria meningitidis strain LNP16504. The experiment is described as follows: MIC of penicillin G, strain LNP16504. To be noted: strain LNP16504, serogroup B.
Description: as §1

The test system of experiment [7] is Neisseria meningitidis strain LNP17723. The experiment is described as follows: MIC of penicillin G, strain LNP17723. Conditions: strain LNP17723, serogroup C.
Description: as §1

The test system of experiment [8] is Neisseria meningitidis strain TR TH-41. The experiment in a line: MIC of penicillin G, strain TR TH-41. To be noted: strain TR TH-41, serogroup C.
Description: as §1

Consider `CC1(C)S[C@@H]2[C@H](NC(=O)Cc3ccccc3)C(=O)N2[C@H]1C(=O)O` [Penicillin G], for which the “MIC Penicillin G” value in experiment [1] came out at 0.38 µg/mL; in experiment [2], 0.094 µg/mL; in experiment [3] it was 0.5 µg/mL; in experiment [4], 0.5 µg/mL; in experiment [5] it was 1 µg/mL; in experiment [6], 0.25 µg/mL. For the same compound, the “MIC Penicillin G” value in experiment [7] stood at 0.75 µg/mL; in experiment [8], 0.5 µg/mL.
